# Several values for one entry are separate records, joined by “and”; a condition that tells them apart may be missing. Equal entries are not always repeated.
# Legend:
# [1] = test system: Naïve T cells; experiment: Expansion of naïve T cells with 2-DG; format: cell-based, human; settings: 4 mM 2-DG
# Procedure: T cell activation and expansion: T cells (seeding density 1×10^6 vc/mL) were activated with DYNABEADS® Human T-Expander CD3/CD28 (Thermo Fisher Scientific, Cat. No. 11141D) at a ratio of 3 beads per T cell and cultured in serum-free medium, animal origin free medium. T cells were counted on days 5, 7, 10, and 12 on a Vi-CELL XR analyzer (Beckman Coulter, Indianapolis IN) and fed with or without 2-DG (0.25 mM, 0.5 mM, 1 mM, 2 mM, and 4 mM) and 5% human AB serum to a density of 5×10^5 vc/mL on days 3, 5, and 7 and 1×10^6 vc/mL on day 10. For some studies, CD8+ and CD4+ T cells were isolated from PBMCs by negative selection using Untouched Human CD8+ and CD4+ T Cells Kits. Naïve and non-naïve T cells were isolated from enriched T cells by positive selection using CD45RA nanobeads (Miltenyi). […]
# [2] = test system: Primary human T cells; experiment: CD8+/CD4+ phenotype with 2-DG at different time points and every feed; format: cell-based; settings: for Fold Increase compared to Baseline: Day 10 vs Day 0 ratio
# Procedure: FIG. 45 represents the data shown in Table 39 which highlights the fold increase in CD8+ to CD4+ ratio of T cells cultured with 2-DG at different time points and every time the cells were fed.
# Phenotype: Primary human T cells were expanded for 10 days with and without 2-DG and 5% human AB serum. DYNABEADS® were removed from 2×10^6 cells by magnetic separation. Surface staining was performed with antibodies against CD3 (Invitrogen, Cat. No. CD0329), CD4 (Molecular Probes, Cat. No. A15858), CD8 (Invitrogen, Cat. No. MHCD0828). Flow cytometric analysis was performed on a Gallios flow cytometer and Kaluza software (Beckman Coulter, Indianapolis IN).
# [3] = test system: mixed CD4+ T cells and CD8+ T cells; experiment: CD4+/CD8+ frequencies after 10 days with 2-DG in mixed CD4+:CD8+ cells (5:1, 10:1); format: cell-based, human; settings: 0.25 mM 2-DG; for correction of deficits in CD8+ T cells compared to day 0: CD4+:CD8+ mixed 5:1 and 10:1
# Procedure: (§1) For some studies, CD8+ and CD4+ T cells were isolated from PBMCs by negative selection using Untouched Human CD8+ and CD4+ T Cells Kits. Naïve and non-naïve T cells were isolated from enriched T cells by positive selection using CD45RA nanobeads (Miltenyi). Phenotype: Primary human T cells were expanded for 10 days with and without 2-DG and 5% human AB serum. DYNABEADS® were removed from 2×10^6 cells by magnetic separation. Surface staining was performed with antibodies against CD3 (Invitrogen, Cat. No. CD0329), CD4 (Molecular Probes, Cat. No. A15858), CD8 (Invitrogen, Cat. No. MHCD0828). Flow cytometric analysis was performed on a Gallios flow cytometer and Kaluza software (Beckman Coulter, Indianapolis IN). For some studies, CD8+ and CD4+ T cells were isolated from PBMCs by negative selection using Untouched Human CD8+ and CD4+ T Cells Kits. Naïve and non-naïve T cells were isolated from enriched T cells by positive selection using CD45RA nanobeads (Miltenyi). Phenotype: Primary human T cells were expanded for 10 days with and without 2-DG and 5% human AB serum. DYNABEADS® were removed from 2×10^6 cells by magnetic separation. Surface staining was performed with antibodies against CD3 (Invitrogen, Cat. No. CD0329), CD4 (Molecular Probes, Cat. No. A15858), CD8 (Invitrogen, Cat. No. MHCD0828). Flow cytometric analysis was performed on a Gallios flow cytometer and Kaluza software (Beckman Coulter, Indianapolis IN).
# [4] = test system: Non-naïve T cells; experiment: CD8+/CD4+ phenotype after 10 days with 2-DG in non-naïve T cells; format: cell-based, human; settings: 4 mM 2-DG
# Procedure: as §1
# [5] = 0.25 mM 2-DG at Day 0, Day 10 of culture
# [6] = 0.25 mM 2-DG at Day 0, after 10 days of culture
# [7] = 0.25 mM 2-DG at Day 3, Day 10 of culture
# [8] = 0.25 mM 2-DG at Day 3, after 10 days of culture
# [9] = 0.25 mM 2-DG at Day 5, Day 10 of culture
# [10] = 0.25 mM 2-DG at Day 5, after 10 days of culture
# [11] = 0.25 mM 2-DG at Day 7, Day 10 of culture
# [12] = 0.25 mM 2-DG at Day 7, after 10 days of culture
# [13] = 0.25 mM 2-DG at Every Feed, Day 10 of culture
# [14] = 0.25 mM 2-DG at Every Feed, after 10 days of culture
# [15] = Day 10, 10:1 CD4+ CD8+ ratio, average
# [16] = Day 10, 5:1 CD4+ CD8+ ratio, replicates
# [17] = Day 10, 10:1 CD4+ CD8+ ratio, replicates
# [18] = Day 10, non-naïve T cells, replicates
compound,measurement,setting,value
"O=CC[C@@H](O)[C@H](O)[C@H](O)CO [2-DG, 2-Deoxy-D-Glucose]",effect of 2-DG on growth of naïve T cells,[1]; 12 days,did not affect growth of either cell type
same,Cultured Naïve T Cell Population Doublings,[1]; day 5,1.70
same,Cultured Naïve T Cell Population Doublings,[1]; day 7,3.92
same,Cultured Naïve T Cell Population Doublings,[1]; day 10,5.45
same,Cultured Naïve T Cell Population Doublings,[1]; day 12,6.13
same,% CD4+,[2]; [5],74.78%
same,% CD8+,[2]; [5],22.88%
same,% Ratios (CD8+/CD4+),[2]; [5],0.31
same,Fold Increase compared to Baseline,[2]; 0.25 mM 2-DG at Day 0,1.38
same,% CD4+,[2]; [6],74.78%
same,% CD8+,[2]; [6],22.88%
same,% Ratios (CD8+/CD4+),[2]; [6],0.31
same,% CD4+,[2]; [7],70.62%
same,% CD8+,[2]; [7],25.76%
same,% Ratios (CD8+/CD4+),[2]; [7],0.36
same,Fold Increase compared to Baseline,[2]; 0.25 mM 2-DG at Day 3,1.64
same,% CD4+,[2]; [8],70.62%
same,% CD8+,[2]; [8],25.76%
same,% Ratios (CD8+/CD4+),[2]; [8],0.36
same,% CD4+,[2]; [9],76.18%
same,% CD8+,[2]; [9],21.26%
same,% Ratios (CD8+/CD4+),[2]; [9],0.28
same,Fold Increase compared to Baseline,[2]; 0.25 mM 2-DG at Day 5,1.26
same,% CD4+,[2]; [10],76.18%
same,% CD8+,[2]; [10],21.26%
same,% Ratios (CD8+/CD4+),[2]; [10],0.28
same,% CD4+,[2]; [11],73.28%
same,% CD8+,[2]; [11],23.91%
same,% Ratios (CD8+/CD4+),[2]; [11],0.33
same,Fold Increase compared to Baseline,[2]; 0.25 mM 2-DG at Day 7,1.47
same,% CD4+,[2]; [12],73.28%
same,% CD8+,[2]; [12],23.91%
same,% Ratios (CD8+/CD4+),[2]; [12],0.33
same,% CD4+,[2]; [13],76.76%
same,% CD8+,[2]; [13],20.35%
same,% Ratios (CD8+/CD4+),[2]; [13],0.27
same,Fold Increase compared to Baseline,[2]; 0.25 mM 2-DG at Every Feed,1.19
same,% CD4+,[2]; [14],76.76%
same,% CD8+,[2]; [14],20.35%
same,% Ratios (CD8+/CD4+),[2]; [14],0.27
same,Fold Increase in CD8+ to CD4+ ratio,[2]; 0.25 mM 2-DG every time cells were fed,3 fold
same,Fold Increase in CD8+ to CD4+ ratio,[2]; 0.25 mM 2-DG on day 7 only,3 fold
same,% CD4+,"[3]; Day 10, 10:1 CD4+ CD8+ ratio",44.89% and 44.25%
same,% CD4+ (Avg),"[3]; Day 10, 10:1 CD4+ CD8+ ratio",44.57%
same,% CD8+,"[3]; Day 10, 10:1 CD4+ CD8+ ratio",43.55% and 45.35%
same,% CD8+ (Avg),"[3]; Day 10, 10:1 CD4+ CD8+ ratio",44.45%
same,% CD4+ (Avg),[3]; [15],44.57%
same,% CD8+ (Avg),[3]; [15],44.45%
same,% CD4+ (Avg),"[3]; Day 10, 5:1 CD4+ CD8+ ratio",33.39%
same,% CD8+ (Avg),"[3]; Day 10, 5:1 CD4+ CD8+ ratio",53.83%
same,% CD4+,[3]; [16],32.91% and 33.88%
same,% CD8+,[3]; [16],53.50% and 54.17%
same,% CD4+,[3]; [17],44.25% and 44.89%
same,% CD8+,[3]; [17],45.35% and 43.55%
same,correction of deficits in CD8+ T cells compared to day 0,[3],able to correct for a large deficits in CD8+ T cells
same,correction of deficits in CD8+ T cells compared to day 0,[3]; listed as 2-DH,able to correct for substantial deficits in CD8+ T cells
same,effect on CD8+:CD4+ ratio in non-naïve T cells,[4]; 10 days,lesser effect
same,% CD4+ (Avg),"[4]; Day 10, non-naïve T cells",81.08%
same,% CD8+ (Avg),"[4]; Day 10, non-naïve T cells",12.23%
same,% Ratios (CD8+/CD4+),"[4]; Day 10, non-naïve T cells",0.15
same,% CD4+,[4]; [18],80.85% and 81.31%
same,% CD8+,[4]; [18],12.23%
same,Fold Increase compared to Baseline,"[4]; Day 10 vs Day 0, non-naïve T cells",0.35

# Source: patent publication US20240076609A1, “COMPOSITIONS AND METHODS FOR CULTURING AND EXPANDING CELLS” (LIFE TECHNOLOGIES CORPORATION, priority 2017, published 2024)
